Experimental findings from ChEMBL document CHEMBL1201862, “PubChem BioAssay data set” (2004) are described below.

Molecules are shown by their SMILES.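 Five compound concentrations were applied to cells in 96-well plates for 48 hours; endpoints were derived by simple linear interpolation of the resulting dose-response curve. Here, GI50 denotes the concentration required for 50% inhibition of growth.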 The source made the active and inactive calls. No stated cut-off is given here; in the data, active = GI50 up to about 1.1 µM and inactive = higher. Some results are limits rather than exact numbers.

Some test systems named below: A549; ACHN; EKVX; HCT-116; K562; KM12; LOX IMVI; NCI-H226; NCI-H522; OVCAR-8; RXF 393; SF-295; SK-MEL-2; SNB-19; SNB-75; SR; SW-620; TK-10; A498.
What all share (assay): DTP human tumour cell line panel, 48 h

With `CCOc1ccc(/N=N/c2c(-c3ccccc3)nn(C(=O)CC(=O)Nc3cccc(C)c3)c2-c2ccccc2)cc1`, the GI50 (as a rule, the concentration that inhibits growth by half) with A549 is > 100 µM (inactive); with ACHN, 38.5 µM (inactive); with EKVX, 38.1 µM (inactive); in the experiment on HCT-116 it was 58.5 µM (inactive); in the experiment on K562 it was 38.8 µM (inactive); with KM12, 41.5 µM (inactive). For the same compound, the GI50 is > 100 µM (inactive) in the experiment with LOX IMVI; 96.4 µM (inactive) in the experiment on NCI-H226; > 100 µM (inactive) in the experiment with NCI-H522; > 100 µM (inactive) with OVCAR-8; 57.9 µM (inactive) in the experiment with RXF 393; > 100 µM (inactive) in the experiment on SF-295. Besides, the GI50 is > 100 µM (inactive) in the experiment on SK-MEL-2; > 100 µM (inactive) with SNB-19; 27.9 µM (inactive) with SNB-75; > 100 µM (inactive) in the experiment on SR; > 100 µM (inactive) with SW-620; > 100 µM (inactive) in the experiment with TK-10.

With `COc1ccccc1NC(=O)CC(=O)n1nc(-c2ccccc2)c(/N=N/c2ccccc2[N+](=O)[O-])c1-c1ccccc1`, the GI50 in the experiment on A549 was > 100 µM (inactive); with ACHN, 32.2 µM (inactive); in the experiment on EKVX, 44.5 µM (inactive); in the experiment with HCT-116, 71.6 µM (inactive); in the experiment on K562, 80.7 µM (inactive); with KM12, 36.1 µM (inactive). The GI50 in the experiment with LOX IMVI was > 100 µM (inactive); with NCI-H226, 0.612 µM (active); in the experiment with NCI-H522, > 100 µM (inactive); in the experiment on OVCAR-8, > 100 µM (inactive); in the experiment on RXF 393 it was 44.7 µM (inactive); in the experiment with SF-295 it was > 100 µM (inactive). Moreover, the GI50 was > 100 µM (inactive) with SK-MEL-2; > 100 µM (inactive) in the experiment with SNB-19; 17.8 µM (inactive) in the experiment on SNB-75; > 100 µM (inactive) with SR; > 100 µM (inactive) in the experiment with SW-620; > 100 µM (inactive) in the experiment with TK-10.

Take `Cn1c2c(c3ccccc31)C1C(=O)N(c3ccccc3)C(=O)C1CC2` (stereo not drawn): the GI50 in the experiment with A549 was > 303 µM (inactive); in the experiment on ACHN, > 303 µM (inactive); in the experiment on EKVX, > 303 µM (inactive); with HCT-116, 294 µM (inactive); with K562, > 303 µM (inactive); in the experiment with KM12, > 303 µM (inactive). Also, the GI50 is > 303 µM (inactive) in the experiment on LOX IMVI; 85.5 µM (inactive) with NCI-H226; 243 µM (inactive) in the experiment on NCI-H522; > 303 µM (inactive) with OVCAR-8; > 303 µM (inactive) with RXF 393; > 303 µM (inactive) in the experiment with SF-295. Further, the GI50 in the experiment with SK-MEL-2 is > 303 µM (inactive); with SNB-19 it was 111 µM (inactive); in the experiment on SR it was > 303 µM (inactive); with SW-620, > 303 µM (inactive); in the experiment with TK-10, > 303 µM (inactive).

With `COc1ccc(C2C(Cl)C(=O)N2NC(=O)Cc2ccccc2)cc1` (stereo not drawn), the GI50 in the experiment on A549, in the experiment on ACHN, in the experiment with EKVX, in the experiment on HCT-116, in the experiment on K562 and in the experiment with KM12 was > 100 µM (inactive) throughout. For the same compound, the GI50 in the experiment with LOX IMVI, with NCI-H226, in the experiment on NCI-H522, with OVCAR-8, with RXF 393 and with SF-295 was > 100 µM (inactive) each time. For the same compound, the GI50 in the experiment on SK-MEL-2, with SNB-19, in the experiment on SNB-75, with SR, with SW-620 and in the experiment on TK-10 was > 100 µM (inactive) throughout.

`N#Cc1ccc(C2OCC3CC=CCC3CO2)cc1` (stereo not drawn): the GI50 is 70 µM (inactive) in the experiment with A549; 93.5 µM (inactive) in the experiment on ACHN; 31.2 µM (inactive) with EKVX; 65.5 µM (inactive) in the experiment with HCT-116; 30.9 µM (inactive) in the experiment on K562; 61.4 µM (inactive) in the experiment on KM12. Further, the GI50 was 94.6 µM (inactive) in the experiment on LOX IMVI; > 100 µM (inactive) in the experiment on NCI-H226; 18.9 µM (inactive) in the experiment on NCI-H522; 83.4 µM (inactive) in the experiment with OVCAR-8; 54.3 µM (inactive) in the experiment with RXF 393; 48.1 µM (inactive) in the experiment with SF-295. The GI50 was > 100 µM (inactive) in the experiment on SK-MEL-2; > 100 µM (inactive) in the experiment on SNB-19; 64.9 µM (inactive) in the experiment on SNB-75; 36.1 µM (inactive) with SR; > 100 µM (inactive) with SW-620.

As for `COc1ccc(/C=C(\Cl)c2ccc(OC)cc2)cc1`, the GI50 with A498, in the experiment with A549, with ACHN, in the experiment on EKVX, with HCT-116 and with K562 was > 100 µM (inactive) in each case. Moreover, the GI50 with KM12, with LOX IMVI, with NCI-H226, with NCI-H522, with OVCAR-8 and with SNB-19 was > 100 µM (inactive) in each case. The GI50 in the experiment on SNB-75, in the experiment on SR, with SW-620 and in the experiment with TK-10 was > 100 µM (inactive) in each case.

In the case of `CCCCCCCCCCCCCC(=O)OCC1OC(=O)C(O)C1O` (stereo not drawn), the GI50 is > 100 µM (inactive) in the experiment on A498; > 100 µM (inactive) in the experiment with A549; > 100 µM (inactive) in the experiment on ACHN; > 100 µM (inactive) in the experiment on EKVX; > 100 µM (inactive) in the experiment on HCT-116; 73.8 µM (inactive) in the experiment with K562. The GI50 is > 100 µM (inactive) in the experiment with KM12; > 100 µM (inactive) in the experiment with LOX IMVI; > 100 µM (inactive) in the experiment with NCI-H226; > 100 µM (inactive) in the experiment with NCI-H522; > 100 µM (inactive) with OVCAR-8; 88.7 µM (inactive) with SF-295. In addition, the GI50 in the experiment with SNB-19, with SNB-75, in the experiment with SR, in the experiment on SW-620 and with TK-10 was > 100 µM (inactive) in each case.

Take `CC(C)CN(CC(C)C)C(=O)C1CCCC[C@@H]1C(=O)O` (stereo partly drawn): the GI50 in the experiment with A498, in the experiment on A549, in the experiment with ACHN, in the experiment with EKVX, in the experiment on HCT-116 and with K562 was > 100 µM (inactive) each time. Also, the GI50 with KM12, in the experiment with LOX IMVI, in the experiment with NCI-H226, in the experiment on NCI-H522, in the experiment on OVCAR-8 and in the experiment on SF-295 was > 100 µM (inactive) each time. The GI50 in the experiment with SK-MEL-2, in the experiment on SNB-75, with SR, in the experiment with SW-620 and in the experiment on TK-10 was > 100 µM (inactive) in each case.
